# Assay results reported in patent US10966978B2, “Dose and regimen for HDM2-p53 interaction inhibitors” (Novartis AG, priority 2016, dated 2021).
# Read-outs that look alike come from different tables or passages of the source.
# Test: Clinical PK of HDM201 in patients (non-compartmental and population PK), study HDM201X2101
# Assay type: in vivo, human
# Settings: for AUC(0-t): read-out: AUClast (0-24 h), Geo Mean (% CV); for Cmax: read-out: Cmax, Geo Mean (% CV); for dose proportionality of PK (AUClast and Cmax): over the dose range studied, single and repeated doses
# Protocol: Pharmacokinetic data have been evaluated throughout the course of the dose escalation. Two HDM201 drug variants have been evaluated during the course of the study (refer to the protocol for further details). […] Furthermore, an integrated analysis of all available HDM201 concentrations was conducted using a population approach. The PK of HDM201 was best described by a 1-compartment PK model with a delayed zero- and first-order absorption process, and a linear clearance. Body weight was identified as a statistically significant covariate on apparent central volume of distribution (Vc/F), in which Vc/F increased with increasing body weight.
# Inter-patient variability (CV % Geo-mean) in exposure was generally low to moderate. Compartmental population PK modeling of NVP-HDM201 was used to estimate the individual average plasma concentration for Cycle 1 and to allow comparison with preclinical average concentration for tumor stasis derived by PK/PD tumor growth modeling.
# The PK of HDM201 have been evaluated in the ongoing single agent Phase I clinical trial in patients with solid tumors and hematological malignancies (HDM201X2101). Patients have been treated with a single dose on Day 1 in a three-week cycle (q3w, regimen 1A), with a single dose on Day 1 and Day 8 in a four-week cycle (d1 and d8 of 4 w cycle, regimen 1B), or with daily dosing for the first 7 or 14 days in a four-week cycle (regimen 2C [q.d., 1 w on/3 w off] or regimen 2A [q.d., 2 w on/2 w off], respectively). PK assessments were conducted following single dose and repeated administration. Preliminary PK parameters from non-compartmental analysis of plasma concentration-time profiles are summarized by dose regimen and tumor type (data cut-off 1 Apr. 2016). PK parameters for Regimen 2A (Day 1 and 14 of Cycle 1 for doses from 1 to 20 mg) and Regimen 1A (Day 1 of Cycle 1 for doses from 12.5 to 350 mg) in solid tumor patients are summarized as representative of the PK for daily and less frequent dosing regimens (Tables 9, 10 and 11).
# Following oral dosing (HDM201 capsule, fasted), the median time to reach maximum plasma concentrations ranged from 2.0 to 5.8 h across the dose range (2 to 350 mg). With the daily dosing regimen, HDM201 steady-state was generally reached by Day 8, and accumulation was less than 2-fold. […]
# Furthermore, the individual PK data was best described by a 1-compartment PK model with a delayed zero- and first-order absorption process (data cut-off 1 Apr. 2016). […] Body weight was identified as a statistically significant covariate on Vc/F.
# [1] = human, plasma, oral, 7.5 mg, Regimen 2A 7.5 mg daily, Day 14, solid malignancies, N = 2
# [2] = human, plasma, oral, 20 mg, Regimen 2A 20 mg daily, Day 14, solid malignancies, N = 4
# [3] = human, plasma, oral, 20 mg, Regimen 2A 20 mg, Day 1 single dose, solid malignancies, N = 5
# [4] = human, plasma, oral, 250 mg, Regimen 1A 250 mg, Day 1 single dose, solid malignancies, N = 6
# [5] = human, plasma, oral, 350 mg, Regimen 1A 350 mg, Day 1 single dose, solid malignancies, N = 5
compound,measurement,setting,value
"COc1ncc(-c2nc3c(n2C(C)C)[C@H](c2ccc(Cl)cc2)N(c2cc(Cl)cn(C)c2=O)C3=O)c(OC)n1 [HDM201, (S)-5-(5-Chloro-1-methyl-2-oxo-1,2-dihydro-pyridin-3-yl)-6-(4-chloro-phenyl)-2-(2,4-dimethoxy-pyrimidin-5-yl)-1-isopropyl-5,6-dihydro-1H-pyrrolo[3,4-d]imidazol-4-one]",AUC(0-t),[1],222 ng·h/mL
same,Cmax,[1],36.1 ng/mL
same,Tmax,"human, plasma, oral, 7.5 mg, Regimen 2A 7.5 mg daily, Day 14, solid malignancies, N = 2, read-out: Tmax, median",3.9 h
same,Cmax,"human, plasma, oral, 7.5 mg, Regimen 2A 7.5 mg, Day 1 single dose, solid malignancies, N = 4",39 ng/mL
same,Tmax,"human, plasma, oral, 7.5 mg, Regimen 2A 7.5 mg, Day 1 single dose, solid malignancies, N = 4, read-out: Tmax, median",5.8 h
same,Tmax,"human, plasma, oral, 12.5 mg, Regimen 1A 12.5 mg, Day 1 single dose, solid malignancies, N = 1, read-out: Tmax, median",3.2 h
same,Tmax,"human, plasma, oral, 15 mg, Regimen 2A 15 mg daily, Day 14, solid malignancies, N = 4, read-out: Tmax, median",3 h
same,Tmax,"human, plasma, oral, 15 mg, Regimen 2A 15 mg, Day 1 single dose, solid malignancies, N = 4, read-out: Tmax, median",3.1 h
same,AUC(0-t),[2],1260 ng·h/mL
same,Cmax,[2],214 ng/mL
same,Tmax,"human, plasma, oral, 20 mg, Regimen 2A 20 mg daily, Day 14, solid malignancies, N = 4, read-out: Tmax, median",4 h
same,AUC(0-t),[3],2300 ng·h/mL
same,Cmax,[3],164 ng/mL
same,Tmax,"human, plasma, oral, 20 mg, Regimen 2A 20 mg, Day 1 single dose, solid malignancies, N = 5, read-out: Tmax, median",2 h
same,Cmax,"human, plasma, oral, 25 mg, Regimen 1A 25 mg, Day 1 single dose, solid malignancies, N = 1",100 ng/mL
same,Tmax,"human, plasma, oral, 25 mg, Regimen 1A 25 mg, Day 1 single dose, solid malignancies, N = 1, read-out: Tmax, median",2.1 h
same,Tmax,"human, plasma, oral, 50 mg, Regimen 1A 50 mg, Day 1 single dose, solid malignancies, N = 4, read-out: Tmax, median",3 h
same,half-life,"human, plasma, oral, 50 mg, Regimen 1A 50 mg, Day 1 single dose, solid malignancies, N = 4, read-out: T½, Geo Mean (% CV) (converted)",11.8 h
same,half-life,"human, plasma, oral, 100 mg, Regimen 1A 100 mg, Day 1 single dose, solid malignancies, N = 3, read-out: T½, Geo Mean (% CV) (converted)",16.3 h
same,Tmax,"human, plasma, oral, 100 mg, Regimen 1A 100 mg, Day 1 single dose, solid malignancies, N = 4, read-out: Tmax, median",3.5 h
same,half-life,"human, plasma, oral, 200 mg, Regimen 1A 200 mg, Day 1 single dose, solid malignancies, N = 4, read-out: T½, Geo Mean (% CV) (converted)",15.1 h
same,Tmax,"human, plasma, oral, 200 mg, Regimen 1A 200 mg, Day 1 single dose, solid malignancies, N = 5, read-out: Tmax, median",3 h
same,half-life,"human, plasma, oral, 250 mg, Regimen 1A 250 mg, Day 1 single dose, solid malignancies, N = 5, read-out: T½, Geo Mean (% CV) (converted)",15.3 h
same,AUC(0-t),[4],23900 ng·h/mL
same,Cmax,[4],1070 ng/mL
same,Tmax,"human, plasma, oral, 250 mg, Regimen 1A 250 mg, Day 1 single dose, solid malignancies, N = 6, read-out: Tmax, median",3.5 h
same,half-life,"human, plasma, oral, 350 mg, Regimen 1A 350 mg, Day 1 single dose, solid malignancies, N = 4, read-out: T½, Geo Mean (% CV) (converted)",15.1 h
same,AUC(0-t),[5],50500 ng·h/mL
same,Cmax,[5],1940 ng/mL
same,Tmax,"human, plasma, oral, 350 mg, Regimen 1A 350 mg, Day 1 single dose, solid malignancies, N = 5, read-out: Tmax, median",4.1 h
same,half-life,"human, plasma, oral, after Day 1 single dose (50-350 mg), read-out: Median half-life",13.7 to 23.1 h
same,half-life,"human, plasma, oral, after a single dose (50 to 350 mg), read-out: Mean T½",11.8 to 16.3 h
same,Vd/F,"human, plasma, oral, population PK, 1-compartment model, read-out: apparent volume of distribution of the central compartment (Vc/F), mean population estimate",119 L
same,Tmax,"human, plasma, po, across dose range 2 to 350 mg, read-out: median time to reach maximum plasma concentrations (Tmax)",2 to 5.8 h
same,dose proportionality of PK (AUClast and Cmax),,approximately dose proportional
same,dose proportionality of PK (AUClast and Cmax),listed as NVP-HDM201,no major deviations from dose proportionality
same,inter-individual variability of CL/F,population PK,48%
same,inter-individual variability of Vc/F,population PK,30%
same,"apparent oral clearance (CL/F), mean population estimate","population PK, 1-compartment model",6.18 L/h
same,patients with estimated average concentration per cycle near or above tumor stasis concentration,"regimen 1B 120 mg, out of 9 patients",7
